# Data: US20090258883A1, “1H-Indole-Pyridinecarboxamide and 1H-Indole-Piperidinecarboxamide Compounds” (LES LABORATOIRES SERVIER, priority 2005, published 2009)
# Marks after values point to notes of the source that are not given here.
# Target: dopaminergic receptors (type D1) (Homo sapiens, UniProt P21728)
# Assay: Affinity for receptors, displacement of labelled specific ligand: D1
# Type: binding
# Conditions: concentration 10^−5 M
# Sequence of dopaminergic receptors (type D1) (P21728 whole entry): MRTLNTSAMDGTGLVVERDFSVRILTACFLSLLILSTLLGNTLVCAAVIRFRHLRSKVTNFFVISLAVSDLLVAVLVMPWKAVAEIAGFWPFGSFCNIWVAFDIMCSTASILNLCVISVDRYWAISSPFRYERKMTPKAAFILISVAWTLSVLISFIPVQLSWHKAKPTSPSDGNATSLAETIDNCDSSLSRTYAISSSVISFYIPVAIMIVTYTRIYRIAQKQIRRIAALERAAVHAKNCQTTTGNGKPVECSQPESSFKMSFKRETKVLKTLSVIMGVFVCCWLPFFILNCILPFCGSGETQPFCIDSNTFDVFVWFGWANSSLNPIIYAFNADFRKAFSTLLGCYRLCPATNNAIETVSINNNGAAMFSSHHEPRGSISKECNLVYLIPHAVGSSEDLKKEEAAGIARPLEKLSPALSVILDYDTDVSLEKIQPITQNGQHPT
row,SMILES,inhibition at 10 µM [%]
1,"CN1CCC=C(C(=O)Nn2ccc3cc(F)ccc32)C1 [Example 7, N-(5-fluoro-1H-indol-1-yl)-1-methyl-1,2,5,6-tetrahydropyridine-3-carboxamide]",< 10

# Same assay, conditions: concentration 10^−7 M
row,SMILES,inhibition at 0.1 µM [%]
1,"CN1CCC=C(C(=O)Nn2ccc3cc(F)ccc32)C1 [Example 7, N-(5-fluoro-1H-indol-1-yl)-1-methyl-1,2,5,6-tetrahydropyridine-3-carboxamide]",< 10

# Test system: tyrosine hydroxylase (TH) protein
# Assay: Induction of tyrosine hydroxylase (TH) in LC, SN and VTA of the mouse brain
# Type: in vivo, Balb/C mouse
# Conditions: LC
# Text: A search is made among the compounds for those which are capable of bringing about an increase in the tyrosine hydroxylase (TH) protein in the locus coeruleus (LC), substantia nigra (SN) and ventral tegmental area (VTA) of the brain of the Balb/C mouse. The animals used are consanguinal male mice of the pure Balb/C strain (Charles River Laboratories) aged 6 weeks at the time of treatment.
# The mice are given a single injection, by the intraperitoneal route, of the compound under test, dissolved in 0.04M HCl solution (corresponding control: 0.04M HCl), if the compound is sufficiently soluble, or in olive oil 90%/DMSO 10% (corresponding control: olive oil 90%/DMSO 10%) for compounds that are insoluble in an aqueous medium. The volume injected is 100 μl. The test groups comprise 10 animals.
# Three days after the injection of each compound, all the animals are sacrificed by decapitation. The brains are removed and then frozen in an isopentane solution at −30° C. for 45 seconds and subsequently stored at −80° C.
# Serial coronal sections 20 microns thick are then taken using a cryomicrotome. Each structure of interest is then sampled along the posterior-anterior axis of the brain by taking sections at 80-micron spacings in the case of the LC and at 80- or 160-micron spacings in the case of the VTA and SN. The limits of those structures are those described in the atlas of Franklin and Paxinos. The total proteins of each of those sections are transferred by direct collection of the sections to a nitrocellulose filter (Millipore). The amounts of TH present in each sample are measured by immunochemistry, fluorimetric detection and image analysis.
row,SMILES,"TH induction in the LC, in words"
1,"CN1CCC=C(C(=O)Nn2ccc3cc(F)ccc32)C1 [Example 7, N-(5-fluoro-1H-indol-1-yl)-1-methyl-1,2,5,6-tetrahydropyridine-3-carboxamide]",induce TH only in the LC

# Same assay, conditions: LC section 1 (posterior-to-anterior), i.p. 20 mg/kg, three days after single injection, relative to mean value of control group
row,SMILES,amount of TH in LC section 1 [%]
1,"CN1CCC=C(C(=O)Nn2ccc3cc(F)ccc32)C1 [Example 7, N-(5-fluoro-1H-indol-1-yl)-1-methyl-1,2,5,6-tetrahydropyridine-3-carboxamide]",113

# Same assay, conditions: LC section 2, i.p. 20 mg/kg, three days after single injection, relative to mean value of control group
row,SMILES,amount of TH in LC section 2
1,"CN1CCC=C(C(=O)Nn2ccc3cc(F)ccc32)C1 [Example 7, N-(5-fluoro-1H-indol-1-yl)-1-methyl-1,2,5,6-tetrahydropyridine-3-carboxamide]",139* %

# Same assay, conditions: LC section 3, i.p. 20 mg/kg, three days after single injection, relative to mean value of control group
row,SMILES,amount of TH in LC section 3 [%]
1,"CN1CCC=C(C(=O)Nn2ccc3cc(F)ccc32)C1 [Example 7, N-(5-fluoro-1H-indol-1-yl)-1-methyl-1,2,5,6-tetrahydropyridine-3-carboxamide]",112

# Same assay, conditions: LC section 4, i.p. 20 mg/kg, three days after single injection, relative to mean value of control group
row,SMILES,amount of TH in LC section 4 [%]
1,"CN1CCC=C(C(=O)Nn2ccc3cc(F)ccc32)C1 [Example 7, N-(5-fluoro-1H-indol-1-yl)-1-methyl-1,2,5,6-tetrahydropyridine-3-carboxamide]",119

# Same assay, conditions: LC section 5, i.p. 20 mg/kg, three days after single injection, relative to mean value of control group
row,SMILES,amount of TH in LC section 5
1,"CN1CCC=C(C(=O)Nn2ccc3cc(F)ccc32)C1 [Example 7, N-(5-fluoro-1H-indol-1-yl)-1-methyl-1,2,5,6-tetrahydropyridine-3-carboxamide]",138** %

# Same assay, conditions: LC section 6, i.p. 20 mg/kg, three days after single injection, relative to mean value of control group
row,SMILES,amount of TH in LC section 6 [%]
1,"CN1CCC=C(C(=O)Nn2ccc3cc(F)ccc32)C1 [Example 7, N-(5-fluoro-1H-indol-1-yl)-1-methyl-1,2,5,6-tetrahydropyridine-3-carboxamide]",122

# Same assay, conditions: LC section 7, i.p. 20 mg/kg, three days after single injection, relative to mean value of control group
row,SMILES,amount of TH in LC section 7
1,"CN1CCC=C(C(=O)Nn2ccc3cc(F)ccc32)C1 [Example 7, N-(5-fluoro-1H-indol-1-yl)-1-methyl-1,2,5,6-tetrahydropyridine-3-carboxamide]",141** %

# Same assay, conditions: LC section 8, i.p. 20 mg/kg, three days after single injection, relative to mean value of control group
row,SMILES,amount of TH in LC section 8
1,"CN1CCC=C(C(=O)Nn2ccc3cc(F)ccc32)C1 [Example 7, N-(5-fluoro-1H-indol-1-yl)-1-methyl-1,2,5,6-tetrahydropyridine-3-carboxamide]",131* %

# Same assay, conditions: LC section 9, i.p. 20 mg/kg, three days after single injection, relative to mean value of control group
row,SMILES,amount of TH in LC section 9 [%]
1,"CN1CCC=C(C(=O)Nn2ccc3cc(F)ccc32)C1 [Example 7, N-(5-fluoro-1H-indol-1-yl)-1-methyl-1,2,5,6-tetrahydropyridine-3-carboxamide]",96

# Same assay, conditions: LC section 10, i.p. 20 mg/kg, three days after single injection, relative to mean value of control group
row,SMILES,amount of TH in LC section 10 [%]
1,"CN1CCC=C(C(=O)Nn2ccc3cc(F)ccc32)C1 [Example 7, N-(5-fluoro-1H-indol-1-yl)-1-methyl-1,2,5,6-tetrahydropyridine-3-carboxamide]",125

# Same assay, conditions: LC section 11, i.p. 20 mg/kg, three days after single injection, relative to mean value of control group
row,SMILES,amount of TH in LC section 11 [%]
1,"CN1CCC=C(C(=O)Nn2ccc3cc(F)ccc32)C1 [Example 7, N-(5-fluoro-1H-indol-1-yl)-1-methyl-1,2,5,6-tetrahydropyridine-3-carboxamide]",106

# Same assay, conditions: LC total, i.p. 20 mg/kg, three days after single injection, relative to mean value of control group
row,SMILES,"amount of TH, LC, total"
1,"CN1CCC=C(C(=O)Nn2ccc3cc(F)ccc32)C1 [Example 7, N-(5-fluoro-1H-indol-1-yl)-1-methyl-1,2,5,6-tetrahydropyridine-3-carboxamide]",123** %

# Same assay, conditions: substantia nigra, single i.p. injection, relative to mean value of control group
row,SMILES,TH induction in the SN
1,"CN1CCC=C(C(=O)Nn2ccc3cc(F)ccc32)C1 [Example 7, N-(5-fluoro-1H-indol-1-yl)-1-methyl-1,2,5,6-tetrahydropyridine-3-carboxamide]",88* %

# Same assay, conditions: ventral tegmental area, single i.p. injection, relative to mean value of control group
row,SMILES,TH induction in the VTA [%]
1,"CN1CCC=C(C(=O)Nn2ccc3cc(F)ccc32)C1 [Example 7, N-(5-fluoro-1H-indol-1-yl)-1-methyl-1,2,5,6-tetrahydropyridine-3-carboxamide]",94

# Test system: confluent endothelial cells from bovine capillaries
# Assay: Predicted crossing of the blood-brain barrier (BBB)
# Type: in vitro ADME
# Parameters: key: high; intermediate; low
# Conditions: 20 μM in upper compartment, filter with bovine capillary endothelial cells, 10-60 minutes, LC-MS-MS
# Method: The substances are incubated at 20 μM in the upper compartment of a double container, the upper compartment being separated from the lower compartment either solely by a polycarbonate filter or by the same filter covered with confluent endothelial cells from bovine capillaries. Evaluation of the permeability kinetics is carried out by means of LC-MS-MS quantification of the unchanged substance in the lower compartment after 10, 20, 30, 40 and 60 minutes.
# The results are given in the form of the categories: high, intermediate, low.
row,SMILES,degree of crossing of the BBB (category)
1,"CN1CCC=C(C(=O)Nn2ccc3cc(F)ccc32)C1 [Example 7, N-(5-fluoro-1H-indol-1-yl)-1-methyl-1,2,5,6-tetrahydropyridine-3-carboxamide]",high

# Target: 5HT receptors (type 5HT2A) (Homo sapiens, UniProt P28223)
# Sequence (P28223 whole entry): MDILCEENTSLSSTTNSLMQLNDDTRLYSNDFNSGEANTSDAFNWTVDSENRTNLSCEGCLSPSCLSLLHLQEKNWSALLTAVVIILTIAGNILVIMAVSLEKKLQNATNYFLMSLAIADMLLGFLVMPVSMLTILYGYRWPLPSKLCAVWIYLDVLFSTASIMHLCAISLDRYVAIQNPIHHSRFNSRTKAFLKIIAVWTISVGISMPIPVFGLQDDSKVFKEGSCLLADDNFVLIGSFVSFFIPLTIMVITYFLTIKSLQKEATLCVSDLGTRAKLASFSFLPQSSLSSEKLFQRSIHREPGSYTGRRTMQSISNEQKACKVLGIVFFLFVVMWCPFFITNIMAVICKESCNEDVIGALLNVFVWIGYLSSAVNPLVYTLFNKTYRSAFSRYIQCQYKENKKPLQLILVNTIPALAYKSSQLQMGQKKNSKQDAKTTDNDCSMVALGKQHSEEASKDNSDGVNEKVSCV
# Assay: Affinity for receptors, displacement of labelled specific ligand: 5HT2A
# Type: binding
# Conditions: concentration 10^−5 M
row,SMILES,inhibition at 10 µM [%]
1,"CN1CCC=C(C(=O)Nn2ccc3cc(F)ccc32)C1 [Example 7, N-(5-fluoro-1H-indol-1-yl)-1-methyl-1,2,5,6-tetrahydropyridine-3-carboxamide]",< 10

# Same assay, conditions: concentration 10^−7 M
row,SMILES,inhibition at 0.1 µM [%]
1,"CN1CCC=C(C(=O)Nn2ccc3cc(F)ccc32)C1 [Example 7, N-(5-fluoro-1H-indol-1-yl)-1-methyl-1,2,5,6-tetrahydropyridine-3-carboxamide]",< 10

# Target: dopaminergic receptors (type D2) (Homo sapiens, UniProt P14416)
# Sequence (P14416 whole entry): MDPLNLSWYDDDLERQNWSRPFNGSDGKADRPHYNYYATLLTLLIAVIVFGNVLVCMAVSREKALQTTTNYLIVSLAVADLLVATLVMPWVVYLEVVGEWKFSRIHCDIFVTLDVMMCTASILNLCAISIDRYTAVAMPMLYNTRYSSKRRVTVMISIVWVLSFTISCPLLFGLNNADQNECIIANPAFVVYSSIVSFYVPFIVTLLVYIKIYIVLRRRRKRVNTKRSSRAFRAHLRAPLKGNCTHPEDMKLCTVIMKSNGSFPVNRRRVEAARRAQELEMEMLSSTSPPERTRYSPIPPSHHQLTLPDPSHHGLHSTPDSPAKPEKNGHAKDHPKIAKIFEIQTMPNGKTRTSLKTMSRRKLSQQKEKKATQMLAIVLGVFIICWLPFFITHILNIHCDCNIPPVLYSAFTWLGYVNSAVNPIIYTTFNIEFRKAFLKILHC
# Assay: Affinity for receptors, displacement of labelled specific ligand: D2
# Type: binding
# Conditions: concentration 10^−5 M
row,SMILES,inhibition at 10 µM [%]
1,"CN1CCC=C(C(=O)Nn2ccc3cc(F)ccc32)C1 [Example 7, N-(5-fluoro-1H-indol-1-yl)-1-methyl-1,2,5,6-tetrahydropyridine-3-carboxamide]",< 10

# Same assay, conditions: concentration 10^−7 M
row,SMILES,inhibition at 0.1 µM [%]
1,"CN1CCC=C(C(=O)Nn2ccc3cc(F)ccc32)C1 [Example 7, N-(5-fluoro-1H-indol-1-yl)-1-methyl-1,2,5,6-tetrahydropyridine-3-carboxamide]",< 10
